Key:
[1] = Surface tension, Du Nouy ring; type: physicochemical; conditions: samples at 0.1 mM, room temperature
Experimental: Samples were prepared at 0.1 mM and assessed using TA.XT2 Texture Analyzer with a 500 g load cell, 5 cm diameter Du Nouy ring and probe speed of 0.2 mm/s at room temperature.
Surface tension of various preparations of synthetic cationic polypeptide(s) in water. Samples were prepared at 0.1 mM and assessed using TA.XT2 Texture Analyzer with a 500 g load cell, 5 cm diameter Du Nouy ring and probe speed of 0.2 mm/s at room temperature.
Surface tension: effect of acetic acid as an additive.

[2] = Kinematic viscosity, glass capillary (Ubbelohde) viscometers, 37° C.; type: physicochemical; conditions: 1 and 2 wt %
Experimental: FIGS. 13A-B. (a) Kinematic viscosity of various synthetic cationic polypeptide(s) in water at 1 wt % and measured using glass capillary viscometers (Ubbelohde viscometers) at a temperature of 37° C. (b) Kinematic viscosity of KrL-100/5.7 (lot BAC02) vs. bovine serum albumin; water is provided for reference.
FIG. 14. Kinematic viscosity of synthetic cationic polypeptide(s) with a lysine-L-leucine block sequence arrangement (KL) in water at 0.5 wt % and measured using glass capillary viscometers (Ubbelohde viscometers) at a temperature of 37° C.
FIG. 13A depicts kinematic viscosity values of various synthetic cationic polypeptide(s) in water at 1 wt % as measured using glass capillary viscometers (Ubbelohde viscometers). […] Albumin is an abundant blood protein and has a molecular weight of approximately 66.5 kDa and total chain length of approximately 583 amino acids units.
The latter has a longer overall chain length, a similar sized hydrophobic block, but a different composition of hydrophobic amino acid units (racemic D,L-leucine vs. enantiopure L-leucine).

Compound | effect on surface tension of water [1] | effect on viscosity of aqueous preparations [2]
[H]/N=C(\N/C(=N/[H])NCCCCCCNC(=N)NC(=N)Nc1ccc(Cl)cc1)Nc1ccc(Cl)cc1 [chlorhexidine, chlorhexidine gluconate] | little or no effect | 
bovine serum albumin: abundant blood protein, approximately 66.5 kDa, approximately 583 amino acid units |  | little, if any effect on viscosity
polyhexamethylene biguanide [PHMB] | little or no effect | 

Reference: US11285189B2, “Compositions and uses of locally-applied antimicrobial synthetic cationic polypeptide(s) with enhanced performance and safety” (priority 2017, dated 2022)
